What is called % Inhibition is the percentage by which the read-out fell short of the control.

Several values for one entry are separate records, joined by “and”; a condition that tells them apart may be missing. Identical values can stand only once. Entries after “also recorded” stand apart in the source; their conditions may differ.

This is an account of results in patent publication US20090197957A1, “Methods and compositions for the treatment of pain” (Nuon Therapeutics, Inc., priority 2005, published 2009).

Data set [1] relates to astrocytes in the spinal cord (GFAP). Put plainly: GFAP immunohistochemistry of lumbar spinal cord (astrocytic activation). Format: in vivo, mice. As to conditions: 10 days following onset of arthritis; 3,4-DAA 200 mg/kg/day, dexamethasone 0.5 mg/kg/2 days. Here is the method: FIG. 6 is an image depicting that 3,4-DAA inhibits mechanical and thermal allodynia, and inhibits astrocytic activation in arthritic mice. Mechanical (a) and thermal (b) allodynia, and paw swelling (c) and clinical score (d) were assessed in naïve mice on the day of arthritis onset, and up to 10 days following therapy with 200 mg/kg 3,4-DAA, […] dexamethasone, or vehicle. […] Whilst 3,4-DAA therapy reduced astrocytic activation (bottom right panel) dexamethasone had no action on GFAP levels (bottom left panel). Quantification of the number of hyper-plastic astrocytes in the spinal cord 10 days following onset of arthritis was performed (f).
Upon completion of treatment, animals were sacrificed by CO2 exposure, and the lumbar spinal cord was excised, fixed (10% formalin), and embedded in paraffin. Immunohistochemistry was then performed to detect astrocytes with a rabbit-anti GFAP (glial fibrillary acidic protein) antibody (Dako Cytomation, Glostrup, Denmark). Antibody detection was performed using an ABC peroxidase method (Vector Laboratories, High Wycombe, Bucks., U.K.) (32).
Astrocytic activation has been proposed to be important for the generation of both inflammatory and neuropathic hypersensitivity [Bao et al., 2001, Neuroreport 12:3905-3908; Watkins et al., 2001, Trends Neurosci. 24:450-455]. Astrocytic activation in the spinal cord in CIA was therefore assessed. […]

For data set [2] the following is noted: 11,484 patients with restenosis following percutaneous coronary intervention; cited from earlier work.
The test system of data set [3] is acetic acid-induced writhing. Kind of data set: Analgesia, acetic acid writhing in mice (Assay #503900, Example 1). The data set is classed as in vivo, mouse. The note with it: for No. of Writhing Average: group of 5 mice; for % Inhibition: relative to vehicle control; for No. of Writhing Individual: single mice. Here is the method:
Tranilast was evaluated for possible analgesic activity in the mouse acetic acid-induced writhing model. Tranilast at 100, 200 and 400 mg/kg was administered orally (PO) 1 hour before intraperitoneal injection of acetic acid (0.5%, 20 ml/kg).
Tranilast, provided by Angiogen Pharmaceuticals Pty. Ltd., was dissolved in 1% NaHCO3 (heated to 70° C.) and administered orally at doses of 100, 200 and 400 mg/kg at 60 minutes before acetic acid injection. The dosing volume was 10 ml/kg.
Male CD-1 (Crl.) derived mice weighing 24±2 g were provided by BioLasco Taiwan (under a Charles River Laboratories Technology licensee). Space allocation for 10 animals was 29×18×13 cm. Mice were housed in APEC^R cages. All animals were maintained in a controlled temperature (22° C.-24° C.) and humidity (60%-70%) environment with 12 hours light dark cycles for at least one week in MDS Pharma Services—Taiwan Laboratory prior to use. Free access to standard lab chow for mice (Lab Diet, Rodent Diet, PMI Nutrition International, USA) and tap water was granted. All aspects of this work including housing, experimentation and disposal of animals were performed in general accordance with the Guide for the Care and Use of Laboratory Animals (National Academy Press, Washington, D.C., 1996).
Test substance was administered PO (400, 200 and 100 mg/kg) to groups of 5 CD-1 (Crl.) derived male or female mice weighing 22±2 g one hour before injection of acetic acid (0.5%, 20 ml/kg IP). Reduction in the number of writhes by 50 percent or more (≧50%) per group of animals observed during the 5 to 10 minute period after acetic acid administration, relative to the vehicle-treated control group, indicates possible analgesic activity.
Test substance was administered orally to groups of 5 mice 60 minutes before injection of Acetic Acid (0.5%, 20 ml/kg IP). The number of writhing per group of animals observed during the 5 to 10 minutes period after acetic acid challenge was observed. Reduction in the number of writhings by 50 percent or more (≧50%) relative to the vehicle-treated control group indicates possible analgesic activity.
For orientation: Writhing tests count abdominal constrictions after an irritant is injected.

In another data set the test system is IL-10. Put plainly: Serum IL-10 in mice with established CIA (ELISA). As to conditions: treated for 10 days, 100, 200 or 400 mg/kg/day, listed as 3,4-DAA. The data set is classed as in vivo. How it is done: FIG. 3 is a graphical representation depicting that treatment with 3,4-DAA leads to increased IL-10 levels in vivo. Mice with established CIA were treated with 3,4-DAA or vehicle (n=7) for 10 days (see FIG. 2), then bled. IL-10 in the sera was measured by ELISA.

For data set [4], the system named is draining (inguinal) lymph node cells. Put plainly: Lymph node cell cytokine responses from treated CIA mice (72 h culture, ELISA). The data set is classed as in vivo. How it is done: FIG. 4 is a graphical representation of the results of mice with established CIA being treated for 10 days with 3,4-DAA or vehicle control. Mice were then killed and draining (inguinal) lymph node cells were cultured for 72 h in the absence or presence of type II collagen.
Inguinal lymph nodes were excised from 3,4-DAA-treated and control mice. Alternatively, inguinal lymph nodes were removed from untreated arthritic mice (day 1-5 of arthritis) and 3,4-DAA was added in vitro. In both cases, a single cell suspension was prepared and LNC were cultured in RPMI 1640 containing FCS (10% v/v), 2-mercaptoethanol (20 μM), L-glutamine (1% w/v), penicillin (100 U/ml) and streptomycin (100 μg/ml) in the presence or absence of type II collagen (50 μg/ml). Secreted cytokines (IFN-γ, IL-5, and IL-10) were measured after 72 h. by ELISA. In brief, 96 well ELISA plates were coated with the respective capture antibody, blocked with bovine serum albumin (2% w/v), and then incubated with LNC culture supernatants overnight at 4° C. After washing, bound cytokines were detected using biotinylated detect antibodies. A standard curve was generated using known concentrations of the appropriate recombinant cytokine and the concentrations of cytokines present in culture supernatants were estimated by reference to the standard curve.
At the end of the experiment draining (inguinal) LNC from control and treated mice were cultured for 72 h in the presence or absence of type II collagen. IFN-γ, IL-5 and IL-10 production was measured by ELISA.

[5] abbreviates: 100 mg/kg PO, 60 minutes before acetic acid.
The mark [6] stands for this setting: 200 mg/kg PO, 60 minutes before acetic acid.
Where [7] appears, read: 400 mg/kg PO, 60 minutes before acetic acid.

Turning to `COc1ccc(/C=C/C(=O)Nc2ccccc2C(=O)O)cc1OC` [Tranilast, 2-[[3-(3,4-dimethoxyphenyl)-1-oxo-2-propenyl]amino]benzoic acid], in data set [1], the “number of activated astrocytes in the spinal cord (GFAP staining)” value is “significantly reduced”. The adverse cardiovascular events entry in data set [2] is “no significant increase”. Moreover, the “No. of Writhing Average” value in data set [3] (setting [5]) was determined as 15; in data set [3] (setting [6]), 13; in data set [3] (setting [7]) it was 9. For the same compound, the “% Inhibition” value was determined as 12% in data set [3] (setting [5]), 24% in data set [3] (setting [6]) and 47% in data set [3] (setting [7]). Also, the “No. of Writhing Individual” value in data set [3] (setting [5]) is 19 and 15 and 16 and 17 and 9; in data set [3] (setting [6]), 10 (2×) and 19 and 9 and 16; in data set [3] (400 mg/kg PO, 60 minutes before acetic acid (0.5%, 20 ml/kg IP), 5 to 10 minute period) it was 3 and 16 and 2 and 10 and 14. The “inhibition of acetic acid-induced writhing across doses” value in data set [3] (100, 200 and 400 mg/kg PO) is “dose-dependent inhibition”. In the data set with IL-10, the “circulating IL-10 levels (sera)” value is recorded as “dose-dependent increase; also recorded: increased”. Besides, the “differences between the groups in cytokine production on re-stimulation with collagen” value in data set [4] (72 h culture in presence of type II collagen) is “not significant”. In addition, the “IFN-γ production by lymph node cells” value in data set [4] (mice given 400 mg/kg (b205 prints 400 mg/mouse) for 10 days, 72 h culture without collagen) is listed as “significantly reduced”. Moreover, the “IL-10 production by lymph node cells” value in data set [4] (mice treated for 10 days, 72 h culture) was “no IL-10 was detected”.
